The numbers were not newly measured in patent publication CN104013603A, “一种烟碱缓释贴剂” (Shanghai Tobacco Group Co Ltd, priority 2014, dated 2014), which cites them from elsewhere.

The conditions of data set [1]: background statement.
The conditions of data set [2]: background statement. The source holds these as a separate data set.

Turning to `CN1CCC[C@H]1c1cccnc1` [尼古丁, (S)-3-(1-Methyl-2-pyrroli-dinyl)pyridine], in data set [1], the penetration into skin entry was “可渗入皮肤”. The solubility entry in data set [2] is “可溶于水、乙醇、氯仿、乙醚、油类”.
